Data: patent publication US20140024030A1, “PRESELECTION OF SUBJECTS FOR THERAPEUTIC TREATMENT WITH OXYGEN SENSITIVE AGENTS BASED IN HYPOXIC STATUS” (priority 2010, published 2014)
Like-named read-outs stand apart in the source and are kept apart here.

Legend:
[1] = test system: advanced pancreatic cancer; conditions: Phase III, combination with Gemcitabine; cited from earlier work
[2] = test system: advanced pancreatic cancer; conditions: Phase II, combination chemotherapy with Gemcitabine; cited from earlier work
[3] = test system: HCT116 human colon carcinoma xenograft; experiment: HCT116 xenograft model in nude mice (hypoxic tumor); type: in vivo; conditions: for efficacy at slowing tumor growth in HCT116 (high hypoxia) versus 786O (low hypoxia) tumors: comparison of HCT116 and 786O xenografts in nude mice
Experimental: Human tumor cell lines HCT116 (ATCC #CRL-247; Schroy P C, et al. Cancer 76: 201-209, 1995) and 786-O (ATCC #CRL-1932; Williams R D, et al. In Vitro 12: 623-627, 1976), were obtained from the American Type Culture Collection (Manassus, Va., USA) were cultured using routine methods until a sufficient number of cells were obtained for implantation. Studies were conducted on animals between 7 and 12 weeks of age at implantation. To implant HCT116 tumor cells into nude mice, the cells were trypsinized, washed in PBS and resuspended at a concentration of 75×10^6 cells/ml in McCoy's modified medium with 50% of BD Matrigel® Basement Membrane Matrix (BD Biosciences®, Bedford, Mass., USA). To implant 786-O tumor cells into nude mice, the cells were trypsinized as above, washed in PBS and resuspended at a concentration of 75×10^6 cells/ml in RPMI 1640 medium with 50% of BD Matrigel® Basement Membrane Matrix. Using a 27 gauge needle and 1 cc syringe, 0.1 ml of the cell suspension was injected into the corpus adiposum of nude mice. […] The location permits palpation and measurement of the tumors using external calipers. Tumor volumes (V) were calculated by caliper measurement of the width (W), length (L) and thickness (T) of tumors using the following formula: V=0.5236×(L×W×T).

[4] = test system: phosphorylated RPS6 (ribosomal protein S6); conditions: TSC1-deficient cells; cited from earlier work
[5] = test system: pancreatic cancer; conditions: PTK787 orally daily with gemcitabine, cited from earlier work
[6] = test system: 786-O human renal carcinoma xenograft; experiment: 786-O xenograft model in nude mice (low hypoxia tumor); type: in vivo
Experimental: Human tumor cell lines HCT116 (ATCC #CRL-247; Schroy P C, et al. Cancer 76: 201-209, 1995) and 786-O (ATCC #CRL-1932; Williams R D, et al. In Vitro 12: 623-627, 1976), were obtained from the American Type Culture Collection (Manassus, Va., USA) were cultured using routine methods until a sufficient number of cells were obtained for implantation. Studies were conducted on animals between 7 and 12 weeks of age at implantation. To implant HCT116 tumor cells into nude mice, the cells were trypsinized, washed in PBS and resuspended at a concentration of 75×10^6 cells/ml in McCoy's modified medium with 50% of BD Matrigel® Basement Membrane Matrix (BD Biosciences®, Bedford, Mass., USA). To implant 786-O tumor cells into nude mice, the cells were trypsinized as above, washed in PBS and resuspended at a concentration of 75×10^6 cells/ml in RPMI 1640 medium with 50% of BD Matrigel® Basement Membrane Matrix. Using a 27 gauge needle and 1 cc syringe, 0.1 ml of the cell suspension was injected into the corpus adiposum of nude mice. The corpus adiposum is a fat body located in the ventral abdominal vicera in the right quadrant of the abdomen at the juncture of the os coxae (pelvic bone) and the os femoris (femur). The location permits palpation and measurement of the tumors using external calipers. Tumor volumes (V) were calculated by caliper measurement of the width (W), length (L) and thickness (T) of tumors using the following formula: V=0.5236×(L×W×T). Animals were randomized into treatment groups so that the average tumor volumes of each group were similar at the start of dosing.
A tumor model in which the tumors have relatively high and low levels of LDH5, indicating high and low levels of hypoxia, using human tumor cell lines HCT116 and 786-O was established as set forth in the previous example.
As above, HCT116 and 786-O cells were cultured and implanted into nude mice using the methods in the previous example. Tumor growth was measured using calipers. Prior to treatment with the various agents, tumors were permitted to develop in vivo until they reached approximately 150 mm^3 in volume, which typically required 2-3 weeks following implantation. Animals were randomized into treatment groups so that the average tumor volumes of each group were similar at the start of dosing.
Tumor volume was monitored throughout the course of the study, until up to about 40 days from the date of tumor implantation. The exact number of days of the study depended on a number of factors including, for example, the number of days from implantation for the tumors to reach the desired volume.

[7] = test system: mCRC pretreated with 5-FU/irinotecan; conditions: cited from earlier work
[8] = test system: metastatic colorectal cancer (mCRC); conditions: cited from earlier work
[9] = test system: metastatic colorectal cancer (mCRC); conditions: cited from earlier work; remark: listed apart in the source
[10] = test system: locally advanced, unresectable or metastatic pancreatic cancer; conditions: 100 mg cohort, arms: gemcitabine plus erlotinib vs gemcitabine alone, cited from earlier work
[11] = test system: advanced renal cell carcinoma; conditions: cited from earlier work
[12] = test system: hepatocellular carcinoma; conditions: cited from earlier work
[13] = test system: metastatic malignancies including renal cell carcinoma; conditions: cited from earlier work
[14] = test system: renal cell carcinoma (RCC); conditions: 140 subjects with elevated LDH; temsirolimus vs interferon; log-rank p<0.005; cited from earlier work
[15] = test system: renal cell carcinoma cell lines; conditions: in vitro; cited from earlier work
[16] = test system: advanced renal cell carcinoma (RCC); conditions: cited from earlier work; for progression-free survival: P=0.0001
[17] = test system: renal cancer; conditions: cited from earlier work; for patients with decreased tumor size: arms: bevacizumab and interferon-alpha vs interferon-alpha alone
[18] = test system: metastatic colorectal cancer; conditions: bevacizumab plus 5-FU/Leucovorin vs 5-FU/Leucovorin alone; not statistically significant; cited from earlier work
[19] = test system: metastatic colorectal cancer; conditions: oxaliplatin stratum; arms: panitumumab, bevacizumab and chemotherapy vs bevacizumab and chemotherapy alone; cited from earlier work
[20] = test system: metastatic pancreatic cancer; conditions: cited from earlier work
[21] = test system: metastatic colorectal cancer; conditions: arms: bevacizumab plus 5-FU/Leucovorin vs IFL regimen alone; cited from earlier work
[22] = test system: treatment-naïve RCC; conditions: final analysis; arms: sunitinib vs IFN-α; cited from earlier work
[23] = arms: temsirolimus alone vs interferon-alpha

Compound: CNC(=O)c1ccccc1Sc1ccc2c(/C=C/c3ccccn3)n[nH]c2c1 [Axitinib, N-Methyl-2-[[3-[(E)-2-pyridin-2-ylethenyl]-1H-indazol-6-yl]sulfanyl]benzamide]
- survival rates versus Gemcitabine alone [1]: no evidence of improved survival rates
- response [2]: good response

Compound: Cn1c(=O)n(-c2ccc(C(C)(C)C#N)cc2)c2c3cc(-c4cnc5ccccc5c4)ccc3ncc21 [BEZ235]
- efficacy at slowing tumor growth in HCT116 (high hypoxia) versus 786O (low hypoxia) tumors [3]: not found to work better in the tumors with a higher level of hypoxia
- levels of phosphorylated RPS6 [4]: significantly reduce the levels of phosphorylated RPS6

Compound: Clc1ccc(Nc2nnc(Cc3ccncc3)c3ccccc23)cc1 [PTK787, N-(4-chlorophenyl)-4-(pyridin-4-ylmethyl)phthalazin-1-amine]
- duration of stable disease [5]: 2-6 months
- patients with stable disease as the best response ([5]; six of eleven patients): 55%
- tumor burden versus control ([6]; 50 mg/kg 5x/week P.O., p=0.7805): no difference in tumor burden
- tumor burden versus control ([6]; XL765 study (FIG. 4B), 30 mg/kg 5x/week P.O., p=0.7682): no difference in tumor burden
- tumor burden versus control ([6]; erlotinib study (FIG. 5B), 1x/week P.O., p=0.8548): no difference in tumor burden
- tumor growth versus control ([3]; 50 mg/kg 5x/week P.O., p=0.1209): reduced the growth of the tumor as compared to control
- efficacy at slowing tumor growth in HCT116 (high hypoxia) versus 786O (low hypoxia) tumors [3]: more effective at slowing tumor growth in tumors with high levels of hypoxia
- PFS HR ([7]; CONFIRM 2 - High LDH, N 250, PTK787 1250 mg/day vs placebo): 0.63
- PFS HR ([7]; CONFIRM 2 - Low LDH, N 605): 0.95
- PFS HR ([8]; CONFIRM 1 - High LDH, N 316, PTK787 1250 mg/day vs placebo): 0.61
- PFS HR ([8]; CONFIRM 1 - Low LDH, N 852): 0.93
- PFS HR ([9]; All CONFIRM 1 & 2 High LDH Patients, N 566): 0.62
- PFS HR ([9]; All CONFIRM 1 & 2 Patients, N 2023): 0.82

Compound: COc1cc(Nc2nc3ccccc3nc2NS(=O)(=O)c2ccc(NC(=O)c3ccc(C)c(OC)c3)cc2)cc(OC)c1 [XL765]
- tumor growth rate versus control ([3]; XL765 30 mg/kg 5x/week P.O., p=0.009): reduced the growth rate of the tumor as compared to control
- efficacy at slowing tumor growth in HCT116 (high hypoxia) versus 786O (low hypoxia) tumors [3]: more effective at slowing tumor growth in tumors with high levels of hypoxia

Compound: Nc1ccn([C@@H]2O[C@H](CO)[C@@H](O)C2(F)F)c(=O)n1 [gemcitabine]
- progression free survival ([10]; p=0.006): 3.5 months
- survival ([10]; p=0.028): 6.0 months

Compound: CNC(=O)c1cc(Oc2ccc(NC(=O)Nc3ccc(Cl)c(C(F)(F)F)c3)cc2)ccn1 [sorafenib]
- median progression free survival ([11]; 769 patients, sorafenib 400 mg twice daily (N=384)): 167 days
- estimated improvement in overall survival vs placebo ([11]; as of 30 Nov. 2005, 367 deaths): 30%
- median PFS ([11]; patients with no prior IL-2 or interferon therapy (N=137)): 172 days
- median overall survival ([11]; sorafenib 400 mg twice daily, 367 deaths): 19.3 months
- progression free survival HR ([11]; sorafenib vs placebo, p<0.000001): 0.44
- efficacy at slowing tumor growth in HCT116 (high hypoxia) versus 786O (low hypoxia) tumors [3]: not found to work better in the tumors with a higher level of hypoxia
- disease control rate (DCR) ([12]; disease stabilization for at least 28 days): 43.48%
- time to progression HR ([12]; independent radiological review, sorafenib vs placebo, p=0.000007): 0.58
- overall survival HR ([12]; sorafenib 400 mg twice daily vs placebo, p=0.00058): 0.69
- progression free rate ([13]; at 24 weeks, p=0.0077): 50%
- progression free survival HR ([13]; sorafenib vs placebo): 0.29

Compound: CO[C@H]1C[C@@H]2CC[C@@H](C)[C@@](O)(O2)C(=O)C(=O)N2CCCC[C@H]2C(=O)O[C@H]([C@H](C)C[C@@H]2CC[C@@H](OC(=O)C(C)(CO)CO)[C@H](OC)C2)CC(=O)[C@H](C)/C=C(\C)[C@@H](O)[C@@H](OC)C(=O)[C@H](C)C[C@H](C)/C=C/C=C/C=C/1C [temsirolimus]
- survival [14]: 6.9 months
- efficacy at slowing tumor growth in HCT116 (high hypoxia) versus 786O (low hypoxia) tumors [3]: not found to work better in the tumors with a higher level of hypoxia
- activity of mTOR [15]: inhibited the activity of mTOR
- levels of HIF-1, HIF-2 alpha and VEGF [15]: reduced levels of the hypoxia-inducible factors HIF-1 and HIF-2 alpha, and the vascular endothelial growth factor
- progression-free survival [16, 23]: 5.5 months
- overall survival versus interferon-alpha alone ([16]; combination of temsirolimus and interferon-alpha): did not result in a significant increase in overall survival
- increase in median overall survival ([16]; temsirolimus compared to interferon-alpha): 49%

Compound: bevacizumab: recombinant humanized monoclonal IgG1 antibody that binds to and inhibits human vascular endothelial growth factor (VEGF)
- tumor burden versus control ([6]; higher dose of bevacizumab (4 mg/kg) i.p., p=0.011): greatest tumor burden
- tumor burden versus control ([6]; low dose bevacizumab (1 mg/kg) i.p., p=0.437): no significant difference in tumor burden
- patients with decreased tumor size [17]: 30%
- increase in progression-free survival time ([17]; interferon-alpha with bevacizumab vs interferon-alpha alone): about 5 months
- tumor growth versus control ([3]; bevacizumab 4 mg/kg i.p., p=0.0424): reduced the growth of the tumor as compared to control
- efficacy at slowing tumor growth in HCT116 (high hypoxia) versus 786O (low hypoxia) tumors [3]: more effective at slowing tumor growth in tumors with high levels of hypoxia
- tumor growth versus control ([3]; lower dose of bevacizumab (1 mg/kg) i.p., p=0.1274): small trend to decreased tumor growth
- improvement in median survival [18]: 29%
- median PFS [19]: 10.5 months
- progression free survival HR ([20]; bevacizumab vs placebo, both with gemcitabine and erlotinib, P=0.0002): 0.73
- median overall survival ([20]; bevacizumab, gemcitabine and erlotinib arm (306 patients)): 7.1 months
- progression-free survival [21]: 8.7 months

Compound: interferon-alpha
- survival [14]: 4.2 months
- patients with decreased tumor size [17]: 12%
- median OS [22]: 94.9 weeks
- progression-free survival [16, 23]: 3.1 months
- median overall survival ([16]; arms: temsirolimus alone vs interferon-alpha, P=0.0078): 7.3 months
